Data as given in US20090018134A1, “Compounds - 945” (AstraZeneca AB, priority 2007, published 2009).
Where two headings read alike, the source gives them in different places.

Target: T1, mTOR (Homo sapiens, UniProt P42345)
T1 construct: FLAG; made in house
Assay: In Vitro mTOR Kinase Assay (Echo), Test (a)(ii)
Type: biochemical
Outline: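 Inhibition of truncated mTOR (1362-2549, FLAG-tagged, purified from stably transfected HEK293 cells) is measured as reduced AlphaScreen signal from a phospho-T389-recognising antibody bound to the biotinylated peptide product. Kinase incubation lasts 2 hours at room temperature. Potency is given as IC50.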

[1] = table of enzyme assay Test (a)(ii), read-out: Test (a)(ii) IC50
[2] = read-out: mTOR Kinase Assay (Echo)

T1 sequence (P42345 1362-2549): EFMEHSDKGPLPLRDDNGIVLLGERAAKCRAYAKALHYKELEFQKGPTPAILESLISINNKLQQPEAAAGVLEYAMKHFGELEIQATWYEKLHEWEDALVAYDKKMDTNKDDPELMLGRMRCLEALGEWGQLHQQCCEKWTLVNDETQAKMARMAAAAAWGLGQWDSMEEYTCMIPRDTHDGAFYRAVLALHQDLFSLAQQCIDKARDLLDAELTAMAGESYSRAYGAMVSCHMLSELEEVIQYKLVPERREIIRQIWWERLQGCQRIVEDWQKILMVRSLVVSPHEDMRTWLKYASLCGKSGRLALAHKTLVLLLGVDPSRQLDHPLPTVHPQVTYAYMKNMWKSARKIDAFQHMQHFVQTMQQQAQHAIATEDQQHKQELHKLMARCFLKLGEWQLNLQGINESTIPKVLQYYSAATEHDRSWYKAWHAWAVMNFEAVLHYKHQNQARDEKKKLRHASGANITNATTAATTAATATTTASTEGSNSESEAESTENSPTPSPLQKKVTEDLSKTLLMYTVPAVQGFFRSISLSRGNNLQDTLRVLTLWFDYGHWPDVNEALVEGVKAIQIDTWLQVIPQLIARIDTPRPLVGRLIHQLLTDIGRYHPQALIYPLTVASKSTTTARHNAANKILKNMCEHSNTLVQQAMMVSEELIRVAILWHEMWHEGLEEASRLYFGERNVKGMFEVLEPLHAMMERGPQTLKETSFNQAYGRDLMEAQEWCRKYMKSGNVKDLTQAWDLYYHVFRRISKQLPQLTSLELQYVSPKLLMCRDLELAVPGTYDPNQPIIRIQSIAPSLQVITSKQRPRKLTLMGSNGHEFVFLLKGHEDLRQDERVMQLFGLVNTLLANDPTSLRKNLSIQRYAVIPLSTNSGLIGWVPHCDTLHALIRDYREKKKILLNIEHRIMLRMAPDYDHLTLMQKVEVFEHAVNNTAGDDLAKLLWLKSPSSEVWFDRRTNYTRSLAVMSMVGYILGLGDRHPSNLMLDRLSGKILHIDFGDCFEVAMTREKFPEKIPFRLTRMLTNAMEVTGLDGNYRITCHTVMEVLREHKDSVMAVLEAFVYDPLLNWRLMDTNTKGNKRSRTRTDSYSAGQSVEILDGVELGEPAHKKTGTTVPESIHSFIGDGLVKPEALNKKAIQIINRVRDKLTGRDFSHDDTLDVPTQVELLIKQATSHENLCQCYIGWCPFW

SMILES | IC50 [1] | IC50 [2]
C[C@H]1COCCN1c1cc(C2(S(=O)(=O)c3ccc(F)cc3)CC2)nc(-c2ccc(NC(=S)NCCO)cc2)n1 [Example 37u, 1-[4-[4-[1-(4-fluorophenyl)sulfonylcyclopropyl]-6-[(3S)-3-methylmorpholin-4-yl]pyrimidin-2-yl]phenyl]-3-(2-hydroxyethyl)thiourea] | 0.395 nM | 
C[C@H]1COCCN1c1cc(C2(S(=O)(=O)CCCO)CCC2)nc(-c2ccc(NC(=O)NCCC#N)cc2)n1 [Example 43c, 3-(2-cyanoethyl)-1-[4-[4-[1-(3-hydroxypropylsulfonyl)cyclobu-tyl]-6-[(3S)-3-methylmorpholin-4-yl]pyrimidin-2-yl]phenyl]urea] | 28.8 nM | 
C[C@H]1COCCN1c1cc(C2(S(=O)(=O)c3ccncc3)CC2)nc(-c2ccc(NC(=O)NC3CC3)cc2)n1 [Example 6m, 3-cyclopropyl-1-[4-[4-[(3S)-3-methylmorpholin-4-yl]-6-(1-pyridin-4-ylsulfonylcyclopropyl)pyrimidin-2-yl]phenyl]urea] |  | 0.936 nM
CCNC(=O)Nc1ccc(-c2nc(N3CCOCC3)cc(C3(S(=O)(=O)c4ccccn4)CC3)n2)cc1 [Example 56b, 3-ethyl-1-[4-[4-morpholin-4-yl-6-(1-pyridin-2-ylsulfonylcyclopropyl)pyrimidin-2-yl]phenyl]urea] | 1.65 nM | 
C[C@H]1COCCN1c1cc(C2(S(=O)(=O)CCCO)CCC2)nc(-c2ccc(NC(=O)Nc3nccs3)cc2)n1 [Example 43t, 1-[4-[4-[1-(3-hydroxypropylsulfonyl)cyclobu-tyl]-6-[(3S)-3-methylmorpholin-4-yl]pyrimdiin-2-yl]phenyl]-3-(1,3-thiazol-2-yl)urea] | 5.45 nM | 
C[C@H]1COCCN1c1cc(C2(S(=O)(=O)c3cccc(F)c3)CC2)nc(-c2ccc(NC(=O)NCCF)cc2)n1 [Example 53c, 3-(2-fluoroethyl)-1-[4-[4-[1-(3-fluorophenyl)sulfonylcyclopro-pyl]-6-[(3S)-3-methylmorpholin-4-yl]pyrimidin-2-yl]phenyl]urea] | 0.688 nM | 
C[C@H]1COCCN1c1cc(C2(S(=O)(=O)C3CC3)CC2)nc(-c2ccc(NC(=O)NC3(CO)CC3)cc2)n1 [Example 3s, 1-[4-[4-(1-cyclopropylsulfonylcyclopropyl)-6-[(3S)-3-methylmorpholin-4-yl]pyrimidin-2-yl]phenyl]-3-[1-(hydroxymethyl)cyclopropyl]urea] |  | 26.3 nM
C[C@H]1COCCN1c1cc(C2(S(C)(=O)=O)CCNCC2)nc(-c2ccc(NC(=O)NCCO)cc2)n1 [Example 20c, 3-(2-hydroxyethyl)-1-[4-[4-[(3S)-3-methylmorpholin-4-yl]-6-(4-methylsulfonylpiperidin-4-yl)pyrimidin-2-yl]phenyl]urea] | 5.59 nM | 
C[C@H]1COCCN1c1cc(C2(S(=O)(=O)c3ccncc3)CC2)nc(-c2ccc(NC(=O)NCCN(C)C)cc2)n1 [Example 6e, 3-(2-dimethylaminoethyl)-1-[4-[4-[(3S)-3-methylmorpholin-4-yl]-6-(1-pyridin-4-ylsulfonylcyclopropyl)pyrimidin-2-yl]phenyl]urea] |  | 67.3 nM
O=C(Nc1ccc(-c2nc(N3CCOCC3)cc(C3(S(=O)(=O)CCO)CC3)n2)cc1)NC1CC1 [Example 47, 3-Cyclopropyl-1-[4-[4-[1-(2-hydroxyethylsulfonyl)cyclopropyl]-6-morpholin-4-ylpyrimidin-2-yl]phenyl]urea] | 15.5 nM | 
C[C@H]1COCCN1c1cc(C2(S(=O)(=O)c3nccs3)CC2)nc(-c2ccc(NC(=O)NC3CC3)cc2)n1 [Example 39, 3-Cyclopropyl-1-[4-[4-[(3S)-3-methylmorpholin-4-yl]-6-[1-(1,3-thiazol-2-ylsulfonyl)cyclopropyl]pyrimidin-2-yl]phenyl]urea] | 0.351 nM | 
CCNC(=O)Nc1ccc(-c2nc(N3CCOC[C@@H]3C)cc(C3(S(=O)(=O)c4ccc(F)cc4)CC3)n2)cc1 [Example 8a, 1-ethyl-3-[4-[4-[1-(4-fluorophenyl)sulfonylcyclopropyl]-6-[(3S)-3-methylmorpholin-4-yl]pyrimidin-2-yl]phenyl]urea] |  | 0.96 nM
CC(C)S(=O)(=O)C1(c2cc(N3CCOC[C@@H]3C)nc(-c3ccc(NC(=O)NC(C)(C)CO)cc3)n2)CC1 [Example 7f, 3-(1-hydroxy-2-methyl-propan-2-yl)-1-[4-[4-[(3S)-3-methylmorpholin-4-yl]-6-(1-propan-2-ylsulfonylcyclopropyl)pyrimidin-2-yl]phenyl]urea] |  | 9.15 nM
CCNC(=O)Nc1ccc(-c2nc(N3CCOC[C@@H]3C)cc(C3(S(=O)(=O)C4CCOC4)CC3)n2)cc1 (stereo partly drawn) [Example 94h, 1-ethyl-3-[4-[4-[(3S)-3-methylmorpholin-4-yl]-6-[1-(oxolan-3-ylsulfonyl)cyclopropyl]pyrimidin-2-yl]phenyl]urea] | 11.6 nM | 
Cc1cc(F)ccc1S(=O)(=O)C1(c2cc(N3CCOC[C@@H]3C)nc(-c3ccc(NC(=O)NC4CC4)cc3)n2)CC1 [Example 82a, 3-cyclopropyl-1-[4-[4-[1-(4-fluoro-2-methylphenyl)sulfonylcyclopropyl]-6-[(3S)-3-methylmorpholin-4-yl]pyrimidin-2-yl]phenyl]urea] | 26.5 nM | 
C[C@H]1COCCN1c1cc(C2(S(C)(=O)=O)CCC2)nc(-c2ccc(NC(=O)NCCN(C)C)cc2)n1 [Example 5g, 3-(2-dimethylaminomethyl)-1-[4-[4-[(3S)-3-methylmorpholin-4-yl]-6-(1-methylsulfonylcyclobutyl)pyrimidin-2-yl]phenyl]urea] |  | 66.8 nM
O=C(NCCO)Nc1ccc(-c2nc(N3CCOCC3)cc(C3(S(=O)(=O)c4ccccn4)CC3)n2)cc1 [Example 56c, 3-(2-hydroxyethyl)-1-[4-[4-morpholin-4-yl-6-(1-pyridin-2-ylsulfonylcyclopropyl)pyrimidin-2-yl]phenyl]urea] | 6.23 nM | 
C[C@H]1COCCN1c1cc(C2(S(=O)(=O)c3ccncc3)CC2)nc(-c2ccc(NC(=O)NCCO)cc2)n1 [Example 6f, 3-(2-hydroxyethyl)-1-[4-[4-[(3S)-3-methylmorpholin-4-yl]-6-(1-pyridin-4-ylsulfonylcyclopropyl)pyrimidin-2-yl]phenyl]urea] |  | 0.794 nM
Cc1ccc(NC(=O)Nc2ccc(-c3nc(N4CCOC[C@@H]4C)cc(C4(S(C)(=O)=O)CC4)n3)cc2)cc1 [Example 2r, 1-[4-[4-[(3S)-3-methylmorpholin-4-yl]-6-(1-methylsulfonylcyclopropyl)pyrimidin-2-yl]phenyl]-3-(4-methylphenyl)urea] | 1.03 nM | 0.66 nM
C[C@H]1COCCN1c1cc(C2(S(C)(=O)=O)CCOCC2)nc(-c2ccc(NC(=O)Nc3cnn(C)c3)cc2)n1 [Example 23d, 1-[4-[4-[(3S)-3-methylmorpholin-4-yl]-6-(4-methylsulfonyloxan-4-yl)pyrimidin-2-yl]phenyl]-3-(1-methylpyrazol-4-yl)urea] | 5.34 nM | 
CCNC(=O)Nc1ccc(-c2nc(N3CCOC[C@@H]3C)cc(C3(S(=O)(=O)c4cc(F)ccc4F)CC3)n2)cc1 [Example 60e, 3-[4-[4-[1-(2,5-difluorophenyl)sulfonylcyclopropyl]-6-[(3S)-3-methylmorpholin-4-yl]pyrimidin-2-yl]phenyl]-1-ethylurea] | 11.6 nM | 
CCNC(=O)Nc1ccc(-c2nc(N3CCOC[C@@H]3C)cc(C3(S(=O)(=O)c4ccc(C)cc4)CC3)n2)cc1 [Example 95q, 1-ethyl-3-[4-[4-[(3S)-3-methylmorpholin-4-yl]-6-[1-(4-methylphenyl)sulfonylcyclopropyl]pyrimidin-2-yl]phenyl]urea] | 1.68 nM | 
CNC(=O)CS(=O)(=O)C1(c2cc(N3CCOCC3)nc(-c3ccc(NC(=O)NC4CC4)cc3)n2)CC1 [Example 46a] | 12.6 nM | 
C[C@H]1COCCN1c1cc(C2(S(=O)(=O)CCC(C)(C)O)CC2)nc(-c2ccc(NC(=O)Nc3cnn(C)c3)cc2)n1 [Example 79e, 1-[4-[4-[1-(3-hydroxy-3-methylbutyl)sulfonylcyclopropyl]-6-[(3S)-3-methylmorpholin-4-yl]pyrimidin-2-yl]phenyl]-3-(1-methylpyrazol-4-yl)urea] | 25.9 nM | 
C[C@H]1COCCN1c1cc(C2(S(=O)(=O)CCCO)CC2)nc(-c2ccc(NC(=O)Nc3nccs3)cc2)n1 [Example 36cj, 1-[4-[4-[1-(3-hydroxypropylsulfonyl)cyclopropyl]-6-[(3S)-3-methylmorpholin-4-yl]pyrimidin-2-yl]phenyl]-3-(1,3-thiazol-2-yl)urea] | 3.33 nM | 
C[C@H]1COCCN1c1cc(C2(S(C)(=O)=O)CCCC2)nc(-c2ccc(NC(=O)NC3CCC3)cc2)n1 [Example 4d, 3-cyclobutyl-1-[4-[4-[(3S)-3-methylmorpholin-4-yl]-6-(1-methylsulfonylcyclopentyl)pyrimidin-2-yl]phenyl]urea] |  | 10 nM
C[C@H]1COCCN1c1cc(C2(S(C)(=O)=O)CC2)nc(-c2ccc(NC(=O)Nc3ccccc3)cc2)n1 [Example 2h, 1-[4-[4-[(3S)-3-methylmorpholin-4-yl]-6-(1-methylsulfonylcyclopropyl)pyrimidin-2-yl]phenyl]-3-phenyl-urea] |  | 0.272 nM
C[C@H]1COCCN1c1cc(C2(S(=O)(=O)c3ccccc3)CC2)nc(-c2ccc(NC(=O)NCCF)cc2)n1 [Example 36ds, 1-[4-[4-[1-(benzenesulfonyl)cyclopropyl]-6-[(3S)-3-methylmorpholin-4-yl]pyrimidin-2-yl]phenyl]-3-(2-fluoroethyl)urea] | 0.973 nM | 
CCS(=O)(=O)C1(c2cc(N3CCOC[C@@H]3C)nc(-c3ccc(NC(=S)NCCCO)cc3)n2)CCC1 [Example 88, 1-[4-[4-(1-Ethylsulfonylcyclobutyl)-6-[(3S)-3-methylmorpholin-4-yl]pyrimidin-2-yl]phenyl]-3-(3-hydroxypropyl)thiourea] | 32.1 nM | 
C[C@H]1COCCN1c1cc(C2(S(=O)(=O)c3ccccc3)CC2)nc(-c2ccc(NC(=S)NC3CC3)cc2)n1 [Example 37v, 1-[4-[4-[1-(benzenesulfonyl)cyclopropyl]-6-[(3S)-3-methylmorpholin-4-yl]pyrimidin-2-yl]phenyl]-3-cyclopropylthiourea] | 5.49 nM | 
